Measurements published in the NIST ThermoML archive (doi:10.1016/j.tca.2013.07.012).
± gives the expanded uncertainty stated by the source.

Columns and labels:
[1] = 101 kPa, Liquid, Vibrating tube method
[2] = xn = mol fraction of the nth substance listed; settings: 101 kPa, Liquid, Vibrating tube method, x2 = 0

## OCC(O)CO [glycerol]
[1]; 278.15 K
  mass density: 1270.87 ± 0.22 kg/m3
[1]; 288.15 K
  mass density: 1264.4 ± 0.22 kg/m3
[1]; 293.15 K
  mass density: 1260.99 ± 0.22 kg/m3
[1]; 298.15 K
  mass density: 1257.91 ± 0.22 kg/m3
[1]; 308.15 K
  mass density: 1251.66 ± 0.22 kg/m3
[1]; 323.15 K
  mass density: 1242.11 ± 0.21 kg/m3
[1]; 333.15 K
  mass density: 1235.71 ± 0.21 kg/m3
[1]; 348.15 K
  mass density: 1225.79 ± 0.21 kg/m3

## O [water]
[1]; 274.15 K
  mass density: 999.9 ± 0.1 kg/m3
[1]; 275.15 K
  mass density: 999.94 ± 0.1 kg/m3
[1]; 276.15 K
  mass density: 999.96 ± 0.1 kg/m3
[1]; 277.15 K
  mass density: 999.97 ± 0.12 kg/m3
[1]; 278.15 K
  mass density: 999.96 ± 0.1 kg/m3
[1]; 279.15 K
  mass density: 999.94 ± 0.1 kg/m3
[1]; 280.15 K
  mass density: 999.9 ± 0.1 kg/m3
[1]; 281.15 K
  mass density: 999.85 ± 0.1 kg/m3
[1]; 282.15 K
  mass density: 999.78 ± 0.1 kg/m3
[1]; 283.15 K
  mass density: 999.7 ± 0.1 kg/m3
[1]; 323.15 K
  mass density: 988.03 ± 0.11 kg/m3
[1]; 333.15 K
  mass density: 983.19 ± 0.11 kg/m3
[1]; 348.15 K
  mass density: 974.84 ± 0.11 kg/m3

## O [water] + OCC(O)CO
[2]; 274.15 K
  mass density: 999.9 ± 0.1 kg/m3
[2]; 275.15 K
  mass density: 999.94 ± 0.1 kg/m3
[2]; 276.15 K
  mass density: 999.96 ± 0.1 kg/m3
[2]; 277.15 K
  mass density: 999.97 ± 0.12 kg/m3
[2]; 278.15 K
  mass density: 999.96 ± 0.1 kg/m3
[2]; 279.15 K
  mass density: 999.94 ± 0.1 kg/m3
[2]; 280.15 K
  mass density: 999.9 ± 0.1 kg/m3
[2]; 281.15 K
  mass density: 999.85 ± 0.1 kg/m3
[2]; 282.15 K
  mass density: 999.78 ± 0.1 kg/m3
[2]; 283.15 K
  mass density: 999.7 ± 0.1 kg/m3
[2]; 323.15 K
  mass density: 988.03 ± 0.11 kg/m3
[2]; 333.15 K
  mass density: 983.19 ± 0.11 kg/m3
[2]; 348.15 K
  mass density: 974.84 ± 0.11 kg/m3
